Measurements: patent publication US10118935B2, “Melampomagnolide B dimers” (priority 2014, dated 2018)
Like-named read-outs stand apart in the source and are kept apart here.

Tests used:
SNB-19 = details: SNB-19
LOX IMVI = assay: NCI 60 cell line five dose, Melanoma
SF-539 = assay: NCI 60 cell line five dose, CNS Cancer
HCT-116 = assay: NCI 60 cell line five dose, Colon Cancer
SW-620 = assay: NCI 60 cell line five dose, Colon Cancer
786-0 = assay: NCI 60 cell line five dose, Renal Cancer
ACHN = assay: NCI 60 cell line five dose, Renal Cancer
CAKI-1 = assay: NCI 60 cell line five dose, Renal Cancer
MDA-MB-231/ATCC = assay: NCI 60 cell line five dose, Breast Cancer
SK-OV-3 = assay: NCI 60 cell line five dose, Ovarian Cancer
DU-145 = assay: NCI 60 cell line five dose, Prostate Cancer
A549/ATCC = assay: NCI 60 cell line five dose, Non-Small Cell Lung Cancer
EKVX = assay: as above; assay type: cell-based, human

SMILES: C=C1C(=O)O[C@H]2[C@H]1CC/C(COC(=O)NCCCCCNC(=O)OC/C1=C/CC[C@@]3(C)O[C@H]3[C@H]3OC(=O)C(=C)[C@@H]3CC1)=C\CC[C@@]1(C)O[C@@H]21 [JVM 2-76, bis(((1aR,7aS,10aS,10bS,E)-1a-Methyl-8-methylene-9-oxo-1a,2,3,6,7,7a,8,9,10a,10b-decahydrooxireno[2′,3′:9,10]cyclodeca[1,2-b]furan-5-yl)methyl)pentane-1,5-diyldicarbamate]
- GI50 (SNB-19): 3.97 µM
- TGI (SNB-19): 19.0 µM
- CC50 (SNB-19; read-out: LC50): 92.5 µM
- GI50 (LOX IMVI): 0.46 µM
- TGI (LOX IMVI): 1.85 µM
- CC50 (LOX IMVI; read-out: LC50): 5.82 µM
- GI50 (SF-539): 1.92 µM
- TGI (SF-539): 4.56 µM
- CC50 (SF-539; read-out: LC50): 12.7 µM
- GI50 (HCT-116): 0.54 µM
- TGI (HCT-116): 1.86 µM
- CC50 (HCT-116; read-out: LC50): 4.56 µM
- GI50 (SW-620): 0.43 µM
- TGI (SW-620): 1.75 µM
- CC50 (SW-620; read-out: LC50): 5.14 µM
- GI50 (786-0): 1.57 µM
- TGI (786-0): 3.17 µM
- CC50 (786-0; read-out: LC50): 6.39 µM
- GI50 (ACHN): 3.05 µM
- TGI (ACHN): 9.84 µM
- CC50 (ACHN; read-out: LC50): 35.4 µM
- GI50 (CAKI-1): 16.1 µM
- TGI (CAKI-1): 33.1 µM
- CC50 (CAKI-1; read-out: LC50): 68.1 µM
- GI50 (MDA-MB-231/ATCC): 1.47 µM
- TGI (MDA-MB-231/ATCC): 3.07 µM
- CC50 (MDA-MB-231/ATCC; read-out: LC50): 6.4 µM
- GI50 (SK-OV-3): 5.99 µM
- TGI (SK-OV-3): 19.7 µM
- CC50 (SK-OV-3; read-out: LC50): 49.9 µM
- GI50 (DU-145): 3.06 µM
- TGI (DU-145): 9.55 µM
- CC50 (DU-145; read-out: LC50): 32.6 µM
- GI50 (A549/ATCC): 14.9 µM
- TGI (A549/ATCC): 32.7 µM
- CC50 (A549/ATCC; read-out: LC50): 71.7 µM

SMILES: C=C1C(=O)O[C@H]2[C@H]1CC/C(COC(=O)NCCCCCCCCNC(=O)OC/C1=C/CC[C@@]3(C)O[C@H]3[C@H]3OC(=O)C(=C)[C@@H]3CC1)=C\CC[C@@]1(C)O[C@@H]21 [JVM 3-62, bis(((1aR,7aS, 10aS, 10bS, E)-1a-Methyl-8-methylene-9-oxo-1a,2,3,6,7,7a,8,9,10a,10b-decahydrooxireno[2′,3′:9,10]cyclodeca[1,2-b]furan-5-yl)methyl)octane-1,8-diyldicarbamate]
- Percent Growth (EKVX; Log10 Concentration −4.0): −98%
- Percent Growth (EKVX; Log10 Concentration −5.0): −99%
- Percent Growth (EKVX; Log10 Concentration −6.0): 62%
- Percent Growth (EKVX; Log10 Concentration −7.0): 90%
- Percent Growth (EKVX; Log10 Concentration −8.0): 91%
- GI50 (EKVX; molar): 1.19 µM
- TGI (EKVX; molar): 2.44E−6
- CC50 (EKVX; molar, read-out: LC50 (the source's name)): 4.99 µM
- Percent Growth (LOX IMVI; Log10 Concentration −4.0): −81%
- Percent Growth (LOX IMVI; Log10 Concentration −5.0): −90%
- Percent Growth (LOX IMVI; Log10 Concentration −6.0): −69%
- Percent Growth (LOX IMVI; Log10 Concentration −7.0): 90%
- Percent Growth (LOX IMVI; Log10 Concentration −8.0): 98%
- GI50 (LOX IMVI; molar): 0.178 µM
- CC50 (LOX IMVI; read-out: LC50, molar): 0.761 µM
- Percent Growth (SF-539; Log10 Concentration −4.0): −83%
- Percent Growth (SF-539; Log10 Concentration −5.0): −91%
- Percent Growth (SF-539; Log10 Concentration −6.0): −27%
- Percent Growth (SF-539; Log10 Concentration −7.0): 95%
- Percent Growth (SF-539; Log10 Concentration −8.0): 89%
- GI50 (SF-539; molar): 0.235 µM
- TGI (SF-539; molar): 5.99E−7
- CC50 (SF-539; read-out: LC50, molar): 2.26 µM
- Percent Growth (HCT-116; Log10 Concentration −4.0): −86%
- Percent Growth (HCT-116; Log10 Concentration −5.0): −92%
- Percent Growth (HCT-116; Log10 Concentration −6.0): −62%
- Percent Growth (HCT-116; Log10 Concentration −7.0): 97%
- Percent Growth (HCT-116; Log10 Concentration −8.0): 98%
- GI50 (HCT-116; molar): 0.195 µM
- TGI (HCT-116; molar): 4.07E−7
- CC50 (HCT-116; read-out: LC50, molar): 0.837 µM
- Percent Growth (SW-620; Log10 Concentration −4.0): −77%
- Percent Growth (SW-620; Log10 Concentration −5.0): −79%
- Percent Growth (SW-620; Log10 Concentration −6.0): −18%
- Percent Growth (SW-620; Log10 Concentration −7.0): 91%
- Percent Growth (SW-620; Log10 Concentration −8.0): 91%
- GI50 (SW-620; molar): 0.239 µM
- TGI (SW-620; molar): 6.86E−7
- CC50 (SW-620; read-out: LC50, molar): 3.37 µM
- Percent Growth (786-0; Log10 Concentration −4.0): −81%
- Percent Growth (786-0; Log10 Concentration −5.0): −81%
- Percent Growth (786-0; Log10 Concentration −6.0): −32%
- Percent Growth (786-0; Log10 Concentration −7.0): 95%
- Percent Growth (786-0; Log10 Concentration −8.0): 95%
- GI50 (786-0; molar): 0.244 µM
- CC50 (786-0; read-out: LC50, molar): 2.93 µM
- Percent Growth (ACHN; Log10 Concentration −4.0): −78%
- Percent Growth (ACHN; Log10 Concentration −5.0): −84%
- Percent Growth (ACHN; Log10 Concentration −6.0): −31%
- Percent Growth (ACHN; Log10 Concentration −7.0): 100%
- Percent Growth (ACHN; Log10 Concentration −8.0): 98%
- GI50 (ACHN; molar): 0.268 µM
- TGI (ACHN; molar): 6.62E−7
- CC50 (ACHN; read-out: LC50, molar): 2.85 µM
- Percent Growth (CAKI-1; Log10 Concentration −4.0): −99%
- Percent Growth (CAKI-1; Log10 Concentration −5.0): −93%
- Percent Growth (CAKI-1; Log10 Concentration −6.0): 41%
- Percent Growth (CAKI-1; Log10 Concentration −7.0): 92%
- Percent Growth (CAKI-1; Log10 Concentration −8.0): 94%
- GI50 (CAKI-1; molar): 0.557 µM
- CC50 (CAKI-1; read-out: LC50, molar): 4.79 µM
- Percent Growth (MDA-MB-231/ATCC; Log10 Concentration −4.0): −80%
- Percent Growth (MDA-MB-231/ATCC; Log10 Concentration −5.0): −78%
- Percent Growth (MDA-MB-231/ATCC; Log10 Concentration −6.0): −47%
- Percent Growth (MDA-MB-231/ATCC; Log10 Concentration −7.0): 92%
- Percent Growth (MDA-MB-231/ATCC; Log10 Concentration −8.0): 99%
- GI50 (MDA-MB-231/ATCC; molar): 0.2 µM
- TGI (MDA-MB-231/ATCC; molar): 4.58E−7
- CC50 (MDA-MB-231/ATCC; read-out: LC50, molar): 1.24 µM
- Percent Growth (SK-OV-3; Log10 Concentration −4.0): −100%
- Percent Growth (SK-OV-3; Log10 Concentration −5.0): 10%
- Percent Growth (SK-OV-3; Log10 Concentration −6.0): 101%
- Percent Growth (SK-OV-3; Log10 Concentration −7.0): 108%
- Percent Growth (SK-OV-3; Log10 Concentration −8.0): 108%
- GI50 (SK-OV-3; molar): 3.64 µM
- Percent Growth (DU-145; Log10 Concentration −4.0): −100%
- Percent Growth (DU-145; Log10 Concentration −5.0): −99%
- Percent Growth (DU-145; Log10 Concentration −6.0): 56%
- Percent Growth (DU-145; Log10 Concentration −7.0): 105%
- Percent Growth (DU-145; Log10 Concentration −8.0): 103%
- GI50 (DU-145; molar): 1.1 µM
- TGI (DU-145; molar): 2.30E−6
- CC50 (DU-145; read-out: LC50, molar): 4.81 µM
- Percent Growth (A549/ATCC; Log10 Concentration −4.0): −84%
- Percent Growth (A549/ATCC; Log10 Concentration −5.0): −72%
- Percent Growth (A549/ATCC; Log10 Concentration −6.0): 87%
- Percent Growth (A549/ATCC; Log10 Concentration −7.0): 96%
- Percent Growth (A549/ATCC; Log10 Concentration −8.0): 96%
- GI50 (A549/ATCC; molar): 1.7 µM
- TGI (A549/ATCC; molar): 3.51E−6
- CC50 (A549/ATCC; read-out: LC50, molar): 7.26 µM
